For orientation: IC50 means the midpoint of a concentration-inhibition curve.

One series addresses T1, HuR (Homo sapiens, UniProt Q15717).
T1 construct: expressed in transfected cells; host or cells: U251 glioma cells, doxycycline-inducible constructs
The series is described as follows: cell-based split firefly luciferase-HuR dimerization assay. The essentials:
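U251 cells carrying HuR fused to N- or C-terminal split firefly luciferase halves (dimer reporter) or full-length Fluc (control); constructs induced with doxycycline 0.75 ug/ml for 48 h. Compounds at various concentrations vs vehicle for 6 h. Luciferin-driven luminescence read; mean+SD.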

Series [1] is described as follows: aqueous solubility at pH 7.4. The series is classed as physicochemical. The settings on record: aqueous medium at pH 7.4, pH 7.4, aqueous buffer; read-out: Sol @ pH 7.4.
Experimental: Selected compounds were assessed for their aqueous solubility, Log D and mouse and human liver microsomal stability.
The target in the next series is PIM1 (Homo sapiens, UniProt P11309). The series is described as follows: SelectScreen kinase profiling, ZLYTE. Format: biochemical. The method, then:
(§1) The kinase inhibitory potentials of compounds as described herein (e.g., SRI-42127 and SRI-41664) were evaluated by ThermoFisher Scientific's SelectScreen™ Kinase Profiling Service. The following kinase inhibitory assays were utilized: ZLYTE (Madison, WI) for NTRK1, PIM1, and cMET kinases; LanthaScreen Binding (Madison, WI) for AAK1 kinase; and Adapta (Madison, WI) for IRAK1 kinase.

The target in the next series is TRKA (NTRK1) (Homo sapiens, UniProt P04629). The series is described as follows: SelectScreen kinase profiling, ZLYTE. Format: biochemical. The method, then:
as §1

Another series deals with cMET (Homo sapiens, UniProt P08581). The experiment in a line: SelectScreen kinase profiling, ZLYTE. The series is classed as biochemical. The method, then:
as §1

For series [2], the system named is LPS-induced neuroinflammatory response in the CNS. The experiment in a line: in vivo LPS mouse model of neuroinflammation. The arrangement: species or system mice. The procedure:
Administration of LPS intraperitoneally produces an acute neuroinflammatory response in the CNS including activation of microglia with production of inflammatory cytokines and chemokines. This model was used to test the effect of SRI-42127 on attenuating the neuroinflammatory response.
Mice were injected with LPS intraperitoneally (i.p.) and then given SRI-42127 at 15 mg/kg (or vehicle) i.p. starting at 30 min post LPS injection and then three subsequent doses at 6 hours, 12 hours, and 18 hours. Brains were harvested at 24 hours for analysis. To determine the impact of SRI-42127 on HuR localization in microglia in the brain, sections from the hippocampus from 3 vehicle control and 3 SRI-42127 treated mice were examined. Tissue sections were stained with IBA1 and HuR. Quantification methods for HuR localization were similar to immunocytochemistry. Briefly, IBA1+ cells were identified and the outline of the cell was traced with Fiji software. Nuclei were localized by DAPI staining. Nuclear and cytoplasmic HuR immunofluorescence was quantitated to calculate a N/C ratio. In vehicle-treated animals, there was translocation of HuR into the cytoplasm as indicated by a merged yellow signal whereas in SRI-42127 treated mice, there was little to no merged signal. Next, 20-30 IBA1+ cells from sections in 3 control and 3 treated mice were assessed. A 2-fold increase in the N/C ratio of mice treated with SRI-42127 was observed, confirming the effect of the drug as shown in FIG. 18 (bottom).
Next, the activation state of microglia was studied by measuring IBA1 intensity. Sections from the hippocampal region were stained with IBA1 and fluorescence intensity was measured using Fiji software from 5 sections of 3 mice per group. The reviewer was blinded to the identity of the samples.
Finally, the impact of SRI-42127 on infiltration of neutrophils and monocytes into the brain after LPS administration i.p. was assessed. Microglial HuR knockout (KO) mice were also assessed. […]

The subject of series [3] is allodynia after spared nerve injury. The series is described as follows: spared nerve injury (sciatic nerve) model, mechanical sensitivity (Von Frey). Format: in vivo. As to conditions: acute administration to DMSO-treated mice at day 7. The procedure:
Wild-type male mice were subjected to a mid-thoracic contusion injury and then treated with SRI-42127 (15 mg/kg) every 8 hours for 4 days, starting 1 hour after injury. […] Not to be bound by theory, similar to spinal cord injury, chronic pain signaling is triggered by activation of microglia and astroglia in the spinal cord and production of inflammatory mediators (e.g. TNF-α, IL-1β, IL-6, INOS, CCL2) that induce hyperexcitation of sensory neurons in the dorsal horn. Mice underwent sciatic nerve lesioning to produce a spared nerve injury and then received SRI-42127 (15 mg/kg) or vehicle every 6 hours for 4 days (starting 1 h after injury). Mechanical sensitivity was assessed at day 7 post-injury. […] Following this test, a subset of mice in the DMSO-treated group was given an acute administration of SRI-42127 (or DMSO) and their mechanical sensitivity was tested at 30 minutes and 60 minutes post-administration. Acute treatment with SRI-42127 reversed allodynia in these mice for at least 60 minutes (p<0.01, FIG. 21, Panel D).

Setting [4] is: 15 mg/kg i.p., all brain regions at 24 hours.

In brackets after ≈: the same amount, converted by molar mass. Where two headings read alike, the source gives them in different places.

T1 sequence (Q15717 whole entry): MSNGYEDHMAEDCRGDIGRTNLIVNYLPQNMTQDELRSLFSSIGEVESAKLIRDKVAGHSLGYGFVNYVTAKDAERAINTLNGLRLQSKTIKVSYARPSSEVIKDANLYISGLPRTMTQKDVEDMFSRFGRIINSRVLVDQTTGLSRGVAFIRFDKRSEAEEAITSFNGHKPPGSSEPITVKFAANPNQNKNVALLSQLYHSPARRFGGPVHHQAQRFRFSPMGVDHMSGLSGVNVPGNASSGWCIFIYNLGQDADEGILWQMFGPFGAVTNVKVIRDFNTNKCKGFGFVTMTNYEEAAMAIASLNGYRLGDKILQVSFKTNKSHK
Chain of cMET (P08581 25-1390): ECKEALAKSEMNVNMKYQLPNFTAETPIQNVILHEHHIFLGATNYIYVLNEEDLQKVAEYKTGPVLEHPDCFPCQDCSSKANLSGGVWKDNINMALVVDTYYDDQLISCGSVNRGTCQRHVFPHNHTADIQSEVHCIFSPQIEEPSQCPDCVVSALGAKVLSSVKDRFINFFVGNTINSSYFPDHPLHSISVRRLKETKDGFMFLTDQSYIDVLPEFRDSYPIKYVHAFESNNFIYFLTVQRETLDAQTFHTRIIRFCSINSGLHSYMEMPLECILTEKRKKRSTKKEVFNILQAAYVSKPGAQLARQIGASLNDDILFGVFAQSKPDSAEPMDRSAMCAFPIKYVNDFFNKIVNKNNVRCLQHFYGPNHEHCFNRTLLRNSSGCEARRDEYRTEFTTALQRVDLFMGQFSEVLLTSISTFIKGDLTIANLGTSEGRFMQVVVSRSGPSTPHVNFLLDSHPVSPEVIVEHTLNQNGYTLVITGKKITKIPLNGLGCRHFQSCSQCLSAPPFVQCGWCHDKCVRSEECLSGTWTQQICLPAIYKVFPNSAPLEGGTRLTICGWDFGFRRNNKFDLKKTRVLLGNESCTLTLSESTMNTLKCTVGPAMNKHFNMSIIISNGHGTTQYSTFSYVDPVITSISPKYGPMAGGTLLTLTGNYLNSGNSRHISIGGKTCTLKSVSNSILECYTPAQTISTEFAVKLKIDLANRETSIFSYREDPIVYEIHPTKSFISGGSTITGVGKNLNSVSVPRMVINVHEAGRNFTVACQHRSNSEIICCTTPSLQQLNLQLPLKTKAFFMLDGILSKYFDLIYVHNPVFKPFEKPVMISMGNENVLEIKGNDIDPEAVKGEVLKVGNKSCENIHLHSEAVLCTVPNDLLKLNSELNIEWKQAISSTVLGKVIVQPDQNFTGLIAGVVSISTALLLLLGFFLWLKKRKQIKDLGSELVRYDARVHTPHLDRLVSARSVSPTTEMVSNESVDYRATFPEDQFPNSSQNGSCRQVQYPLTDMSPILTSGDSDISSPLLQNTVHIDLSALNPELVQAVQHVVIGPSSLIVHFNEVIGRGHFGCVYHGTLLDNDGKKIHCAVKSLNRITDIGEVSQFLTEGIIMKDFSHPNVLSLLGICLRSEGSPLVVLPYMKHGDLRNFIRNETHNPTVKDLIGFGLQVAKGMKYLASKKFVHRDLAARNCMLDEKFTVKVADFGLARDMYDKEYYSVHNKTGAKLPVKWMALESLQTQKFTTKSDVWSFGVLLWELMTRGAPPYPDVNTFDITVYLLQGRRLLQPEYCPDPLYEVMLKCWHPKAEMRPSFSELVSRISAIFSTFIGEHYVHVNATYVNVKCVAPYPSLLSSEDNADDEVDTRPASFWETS
Chain of TRKA (NTRK1) (P04629 33-796): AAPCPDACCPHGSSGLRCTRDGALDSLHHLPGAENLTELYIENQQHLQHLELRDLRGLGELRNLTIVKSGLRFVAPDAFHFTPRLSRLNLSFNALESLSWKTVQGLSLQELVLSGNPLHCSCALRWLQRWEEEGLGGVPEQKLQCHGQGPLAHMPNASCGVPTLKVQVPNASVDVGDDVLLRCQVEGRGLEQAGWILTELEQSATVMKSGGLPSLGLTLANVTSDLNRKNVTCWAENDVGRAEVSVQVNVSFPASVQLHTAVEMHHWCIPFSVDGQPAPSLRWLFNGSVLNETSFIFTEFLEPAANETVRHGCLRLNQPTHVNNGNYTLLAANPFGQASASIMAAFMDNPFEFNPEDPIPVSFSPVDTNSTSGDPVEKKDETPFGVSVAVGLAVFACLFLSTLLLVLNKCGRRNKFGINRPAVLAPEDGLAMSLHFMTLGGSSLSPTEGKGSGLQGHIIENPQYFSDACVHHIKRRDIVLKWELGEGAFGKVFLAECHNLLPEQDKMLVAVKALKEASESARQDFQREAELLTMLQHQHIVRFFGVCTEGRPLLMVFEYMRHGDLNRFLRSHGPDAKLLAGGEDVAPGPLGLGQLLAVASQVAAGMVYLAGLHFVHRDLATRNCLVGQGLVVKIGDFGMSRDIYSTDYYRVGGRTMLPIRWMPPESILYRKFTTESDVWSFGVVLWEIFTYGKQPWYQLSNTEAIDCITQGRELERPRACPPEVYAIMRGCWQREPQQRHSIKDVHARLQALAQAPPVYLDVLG
Chain of PIM1 (P11309 whole entry): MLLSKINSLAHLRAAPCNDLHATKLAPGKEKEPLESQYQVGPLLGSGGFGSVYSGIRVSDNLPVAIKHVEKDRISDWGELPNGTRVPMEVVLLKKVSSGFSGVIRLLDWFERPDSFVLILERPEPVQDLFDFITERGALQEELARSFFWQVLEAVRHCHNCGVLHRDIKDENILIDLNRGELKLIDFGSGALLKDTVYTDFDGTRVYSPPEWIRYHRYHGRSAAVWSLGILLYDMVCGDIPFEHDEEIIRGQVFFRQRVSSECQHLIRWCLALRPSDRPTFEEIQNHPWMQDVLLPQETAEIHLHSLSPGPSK

Regarding `CN(c1ccc2ncc(-c3ccc4cn[nH]c4c3)n2n1)C1CCOCC1` [Compound 19], at HuR, the “HuR inhibition activity (in words)” value is listed as “active”. For the same compound, the “HuR N/C Imax % Inh” value on HuR (Concn 50 uM) came out at 90%. Further, the IC50 at HuR (U251 cells co-expressing HuR-Nluc and HuR-Cluc, 6 hours of treatment, read-out: HuR IC50) came out at 1200 ± 200 nM; on HuR (U251 with dox-inducible HuR-dimerization reporters, after increase in HuR dimerization by two fold, 6 hours, read-out: IC50 for inhibition of HuR dimerization), 1900 ± 100 nM; on HuR (U251 with dox-inducible HuR-dimerization reporters, before increase in HuR dimerization, 6 hours, read-out: IC50 for inhibition of HuR dimerization), 1200 ± 100 nM; on HuR (split luciferase HuR dimerization assay, compounds administered for 6 hours, read-out: HuR IC50), 1500 nM; on PIM1 it was 668 nM; at TRKA (NTRK1), 117 nM. In addition, the half-maximal inhibitory concentration (IC50) against cMET was over 10000 nM. Further, the “maximum inhibition of HuR dimerization” value on HuR (after 6 hours of cell treatment) is listed as 90±1%. In series [1], the solubility is 2.4 µM (≈ 0.836 µg/mL). In addition, the “increase in the HuR N/C ratio in microglia” value in series [2] (15 mg/kg i.p. at 30 min, 6, 12 and 18 hours post LPS, hippocampus at 24 hours) is 2 fold. In series [2] (setting [4]), the “attenuation of infiltrating monocytes” value is on record as 1.3- to 2 fold. Also, the “attenuation of infiltrating neutrophils” value in series [2] (setting [4]) is recorded as 2 to 3 fold. Also, the “duration of reversal of allodynia after acute administration” value in series [3] is recorded as “at least 60 minutes”.

The record behind these values is US12435091B2, “RNA-binding protein multimerization inhibitors and methods of use thereof” (THE UAB RESEARCH FOUNDATION, priority 2020, dated 2025).
